Assay results as given in patent US12018011B2, “Macrocyclic compounds and compositions, and methods of preparing and using the same” (Kura Oncology, Inc., priority 2021, dated 2024).
Read-outs that look alike come from different tables or passages of the source.

Experiments:
[1] = biological target: T1, Recombinant human farnesyl transferase (FTase) (Homo sapiens, UniProt P49356); assay: FTase fluorescence assay (farnesylation of dansyl-GCVLS peptide); type: biochemical; conditions: recombinant human FTase 2.5 nM, Dansyl-GCVLS 85 nM, FPP 30 nM, 30° C., 50 minutes
T1 construct: purchased Crelux (Martinsried, Germany)

[2] = Metabolic stability in human liver microsomes; type: in vitro ADME; conditions: human liver microsomes 0.5 mg protein/mL, test compound 1 μM, 37° C.; read-out: T1/2 in HLM
Protocol: (§1) The metabolic stability of the compounds disclosed herein was determined by measuring half-life (T1/2) of the compounds in the presence of mouse liver microsomes (MLM) or human liver microsomes (BILM).
(§2) Intermediate solution: 5 μL of compound and control stock solution (10 mM in dimethyl sulfoxide (DMSO)) were diluted with 495 μL of acetonitrile (ACN) (intermediate solution concentration: 100 μM, 99% ACN).
(§3) Working solution: 50 μL of compound and control intermediate solution (100 μM) were diluted with 450 μL of 100 mM potassium phosphate buffer (working solution concentration: 10 μM, 9.9% ACN).
(§4) Controls used in this assay: Testosterone, Diclofenac, and Propafenone.
(§5) Preparation Procedure: The appropriate amount of NADPH powder was weighed and diluted into a 10 mM MgCl2 solution (working solution concentration: 10 unit/mL; final concentration in reaction system: 1 unit/mL).
(§6) The appropriate concentrations of microsome working solutions were prepared in 100 mM potassium phosphate buffer.
(§7) Cold (4° C.) acetonitrile (CAN) containing 200 ng/mL tolbutamide and 200 ng/mL labetalol as internal standards (IS) was used as the stop solution.
(§8) Using an Apricot automation workstation, 10 μL/well of compound working solution were added to all 96-well reaction plates except the blank (T0, T5, T10, T20, T30, T60, and NCF60).
(§9) An Apricot automation workstation was used to add 80 μL/well of microsome solution to all reaction plates (Blank, T0, T5, T10, T20, T30, T60, and NCF60).
(§10) All reaction plates containing mixtures of compound and microsomes were pre-incubated at 37° C. for 10 minutes.
(§11) An Apricot automation workstation was used to add 10 μL/well of 100 mM potassium phosphate buffer to reaction plate NCF60.
(§12) Reaction plate NCF60 was incubated at 37° C. for 60 minutes.
(§13) After pre-incubation, an Apricot automation workstation was used to add 10 μL/well of NADPH regenerating system to every reaction plate except NCF60 (Blank, T0, T5, T10, T20, T30, and T60) to start the reaction. Final concentration of each component in incubation medium: Microsome (0.5 mg protein/mL); Test Compound (1 μM); Control Compound (1 μM); Acetonitrile (0.99%); DMSO (0.01%).
(§14) The reaction plates were incubated at 37° C. for 0 minute (T0, stop solution was added prior to microsome and NADPH solutions), 5 minutes (T5), 10 minutes (T10), 20 minutes (T20), 30 minutes (T30), 60 minutes (T60).
(§15) An Apricot automation workstation was used to add 300 μL/well of stop solution to each reaction plate at its appropriate end time point to terminate the reaction.
(§16) Each plate was sealed and shaken for 10 minutes.
(§17) After shaking, each plate was centrifuged at 4000 rpm and 4° C. for 20 minutes.
(§18) During centrifugation, an Apricot automation workstation was used to add 300 µL/well of HPLC grade water to eight new 96-well plates.
(§19) After centrifugation, an Apricot automation workstation was used to transfer 100 μL of supernatant from each reaction plate to its corresponding bioanaylsis plate.
(§20) Each bioanalysis plate was sealed and shaken for 10 minutes prior to LC-MS/MS analysis.
(§21) The equation of first order kinetics was used to calculate T1/2 and CLint(mic) (μL/min/mg).

[3] = Metabolic stability in mouse liver microsomes; type: in vitro ADME; conditions: CD-1 mouse liver microsomes 0.5 mg protein/mL, test compound 1 μM, 37° C.; read-out: T1/2 in MLM
Protocol: as §1, §2, §3, §4, §5, §6, §7, §8, §9, §10, §11, §12, §13, §14, §15, §16, §17, §18, §19, §20, §21

[4] = system: T24/83 cells; assay: T24/83 cell proliferation assay (CellTiter-Glo); type: cell-based; conditions: Homo sapiens, 96 h, 4 days
In short: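 HRAS-mutant T24/83 bladder carcinoma cells seeded at 100 cells/well and grown with inhibitor for 4 days at 37 °C; 0.7% DMSO negative control, 100 μM tipifarnib positive control. Viability by CellTiter-Glo luminescence.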

[5] = biological target: T2, geranylgeranyl transferase type-1 (GGTase) (Homo sapiens, UniProt P53609); assay: GGTase fluorescence assay (dansyl-GCVLL peptide, GGPP); type: biochemical; conditions: GGTase 25 nM, Dansyl-GCVLL 10 μM, GGPP 10 μM, 30° C., 120 minutes
T2 construct: purchased Crelux (Martinsried, Germany)
Text: T24/83 cell line was purchased from the European Collection of Authenticated Cell Cultures (Salisbury, UK). Recombinant human farnesyl transferase (FTase) and geranylgeranyl transferase type-1 (GGTase) were obtained from Crelux (Martinsried, Germany). Dansyl labelled GCVLS peptide was purchased from Bachem (Torrance, CA), and Dansyl labelled GCVLL peptide was purchased from Bio Synthesis (Lewisville, TX). Farnesyl Pyrophosphate (FPP) and Geranylgeranyl pyrophosphate (GGPP) were purchased from Cayman (Ann Arbor, MI).
Geranylgeranyl transferase (GGTase) is a closely related enzyme to farnesyl transferase (FTase). The two enzymes share a common regulatory chain but have distinct individual enzymatic domains. GGTase catalyses the addition of an alternative prenylated side chain to some of the same proteins that may also be farnesylated. Thus, selective inhibitory activity against FTase relative to GGTase is a critical characteristic for FTase inhibitors.
The IC50 value of the compounds disclosed herein as inhibitors of Ftase and/or GGTase, was determined by measuring the concentration (provided in nM) necessary to achieve inhibition of enzyme activity by 50% (IC50). […] Compounds having a low IC50 value against FTase, for example an IC50 (FTase)<100 nM, such as an IC50 (FTase)<10 nM, are preferred. Compounds having a low IC50 value against FTase and a high IC50 value against GGTase, for example an IC50 (FTase)<100 nM, such as an IC50 (FTase)<10 nM, and an IC50 (GGTase)>100 nM, are potent and selective inhibitors of FTase, and are particularly preferred.
The inhibition activities of the compounds disclosed herein against Ftase and GGTase were measured in the respective fluorescence assays as follows:
For the GGTase assay, GGTase (25 nM), Dansyl labelled GCVLL peptide (10 μM), GGPP (10 μM) and inhibitor were mixed in assay buffer (50 mM Tris, pH 7.5, 10 mM magnesium chloride, 10 μM zinc chloride, 0.08% CHAPS, 5 mM dithiothreitol) and incubated in a total volume of 20 μL at 30° C. for 120 minutes.
For both the FTase assay and GGTase assay, fluorescence intensity was detected (excitation at 340 nm and emission at 486 nm) using EnVision (PerkinElmer; Waltham, MA), IC50 determinations were performed using a sigmoidal dose-response model with Xlfit software (IDBS, Inc.; Boston, MA), and tipifarnib was used as a positive control. All the assay plates for each assay passed the QC criteria (S/B, Z factor).

[6] = ether bond

IC50 [1]	half-life at 1 μM [2]	half-life at 1 μM [3]	IC50 [4]	IC50 [5]	Structure (SMILES)	ring closure, yield of all isomers ([6]; from COc1cc(-c2cccc(O)c2)c2cc(C(O)(c3ccc(Cl)c(CO)c3)c3cncn3C)ccc2n1, Cs2CO3, THF, 9.5 mM, 105.0 °C, 10.0 h, 2 steps)	ring closure, yield of all isomers ([6]; from COc1cc(-c2cccc(O)c2)c2cc(C(O)(c3ccc(Cl)c(CCl)c3)c3nncn3C)ccc2n1, K2CO3, DMF, 29.8 mM, 55.0 °C, 12.0 h)	ring closure, yield of all isomers ([6]; from COc1cc(-c2cccc(O)c2)c2cc(C(O)(c3ccc(Br)c(CO)c3)c3cncn3C)ccc2n1, Cs2CO3, DMF, 122.7 mM, 70.0 °C, 0.5 h, 2 steps)
≤ 10 nM	> 100 min	5 to 15 min	≤ 50 nM	> 1000 nM	Cn1cncc1[C@@]1(N)c2ccc(Cl)c(c2)COc2cccc(c2)-c2cc(=O)n(C)c3ccc1cc23 [(S)-46, (S)-3-amino-4^4-chloro-2^1-methyl-3-(1-methyl-1H-imidazol-5-yl)-2^1,2^2-dihydro-6-oxa-2(4,6)-quinolina-1,4(1,3)-dibenzenacyclohexaphan-2^2-one]	–	–	–
≤ 10 nM	> 100 min	5 to 15 min	≤ 50 nM	> 1000 nM	[2H]C([2H])([2H])n1c(=O)cc2c3cc(ccc31)[C@@](N)(c1cncn1C)c1ccc(Cl)c(c1)COc1cccc-2c1 [(S)-47, (S)-3-amino-4^4-chloro-2^1-(methyl-d3)-3-(1-methyl-1H-imidazol-5-yl)-2^1,2^2-dihydro-6-oxa-2(4,6)-quinolina-1,4(1,3)-dibenzenacyclohexaphan-2^2-one]	–	–	–
≤ 10 nM	> 100 min	> 15 min	50 to 500 nM	> 1000 nM	Cn1cnnc1[C@@]1(N)c2ccc(Cl)c(c2)COc2cccc(c2)-c2cc(=O)n(C)c3ccc1cc23 [(S)-51, (S)-3-amino-4^4-chloro-2^1-methyl-3-(4-methyl-4H-1,2,4-triazol-3-yl)-2^1,2^2-dihydro-6-oxa-2(4,6)-quinolina-1,4(1,3)-dibenzenacyclohexaphan-2^2-one]	–	–	–
≤ 10 nM	> 100 min	> 15 min	≤ 50 nM	> 1000 nM	[2H]C([2H])([2H])n1c(=O)cc2c3cc(ccc31)[C@@](N)(c1cncn1C)c1ccc(C#N)c(c1)COc1cccc-2c1 [(S)-56, (S)-3-amino-2^1-(methyl-d3)-3-(1-methyl-1H-imidazol-5-yl)-2^2-oxo-2^1,2^2-dihydro-6-oxa-2(4,6)-quinolina-1,4(1,3)-dibenzenacyclohexaphane-4^4-carbonitrile]	–	–	–

The next lines start with the molecule.

Structure (SMILES)	IC50 [1]	half-life at 1 μM [2]	half-life at 1 μM [3]	IC50 [4]	IC50 [5]	ring closure, yield of all isomers ([6]; from COc1cc(-c2cccc(O)c2)c2cc(C(O)(c3ccc(Cl)c(CO)c3)c3cncn3C)ccc2n1, Cs2CO3, THF, 9.5 mM, 105.0 °C, 10.0 h, 2 steps)	ring closure, yield of all isomers ([6]; from COc1cc(-c2cccc(O)c2)c2cc(C(O)(c3ccc(Cl)c(CCl)c3)c3nncn3C)ccc2n1, K2CO3, DMF, 29.8 mM, 55.0 °C, 12.0 h)	ring closure, yield of all isomers ([6]; from COc1cc(-c2cccc(O)c2)c2cc(C(O)(c3ccc(Br)c(CO)c3)c3cncn3C)ccc2n1, Cs2CO3, DMF, 122.7 mM, 70.0 °C, 0.5 h, 2 steps)
Cn1cncc1[C@@]1(N)c2ccc(Cl)c(c2)OCCc2cccc(c2)-c2cc(=O)n(C)c3ccc1cc23 [(S)-27, (S)-3-amino-4^4-chloro-2^1-methyl-3-(1-methyl-1H-imidazol-5-yl)-2^1,2^2-dihydro-5-oxa-2(4,6)-quinolina-1,4(1,3)-dibenzenacycloheptaphan-2^2-one]	≤ 10 nM	< 30 min	< 5 min	≤ 50 nM	> 1000 nM	–	–	–
[2H]C([2H])([2H])n1c(=O)cc2c3cc(ccc31)[C@@](N)(c1nncn1C)c1ccc(Cl)c(c1)OCCc1cccc-2c1 [(S)-34, (S)-3-amino-4^4-chloro-2^1-(methyl-d3)-3-(4-methyl-4H-1,2,4-triazol-3-yl)-2^1,2^2-dihydro-5-oxa-2(4,6)-quinolina-1,4(1,3)-dibenzenacycloheptaphan-2^2-one]	≤ 10 nM	< 30 min	5 to 15 min	50 to 500 nM	> 1000 nM	–	–	–
Cn1cncc1[C@@]1(N)c2ccc(C#N)c(c2)OCCc2cccc(c2)-c2cc(=O)n(C)c3ccc1cc23 [(S)-37, (S)-3-amino-2^1-methyl-3-(1-methyl-1H-imidazol-5-yl)-2^2-oxo-2^1,2^2-dihydro-5-oxa-2(4,6)-quinolina-1,4(1,3)-dibenzenacycloheptaphane-4^4-carbonitrile]	≤ 10 nM	< 30 min	< 5 min	≤ 50 nM	> 1000 nM	–	–	–
Cn1cncc1[C@@]1(N)c2ccc(C#N)c(c2)COc2cccc(c2)-c2cc(C#N)nc3ccc1cc23 [(S)-58, (S)-3-amino-3-(1-methyl-1H-imidazol-5-yl)-6-oxa-2(4,6)-quinolina-1,4(1,3)-dibenzenacyclohexaphane-2^2 4^4-dicarbonitrile]	≤ 10 nM	> 100 min	> 15 min	≤ 50 nM	> 1000 nM	–	–	–
COc1cc2c3cc(ccc3n1)C(O)(c1cncn1C)c1ccc(Cl)c(c1)COc1cccc-2c1 (stereo not drawn) [Compound 43, 4^4-chloro-2^2-methoxy-3-(1-methyl-1H-imidazol-5-yl)-6-oxa-2(4,6)-quinolina-1,4(1,3)-dibenzenacyclohexaphan-3-ol]	10 to 100 nM	–	–	–	–	82.9%	–	–
COc1cc2c3cc(ccc3n1)C(O)(c1nncn1C)c1ccc(Cl)c(c1)COc1cccc-2c1 (stereo not drawn) [Compound 49, 4^4-chloro-2^2-methoxy-3-(4-methyl-4H-1,2,4-triazol-3-yl)-6-oxa-2(4,6)-quinolina-1,4(1,3)-dibenzenacyclohexaphan-3-ol]	> 100 nM	–	–	–	–	–	19%	–
COc1cc2c3cc(ccc3n1)C(O)(c1cncn1C)c1ccc(Br)c(c1)COc1cccc-2c1 (stereo not drawn) [Compound 52, 4^4-bromo-2^2-methoxy-3-(1-methyl-1H-imidazol-5-yl)-6-oxa-2(4,6)-quinolina-1,4(1,3)-dibenzenacyclohexaphan-3-ol]	10 to 100 nM	–	–	–	–	–	–	84.8%
Cn1cncc1[C@@](N)(c1ccc(Cl)cc1)c1ccc2c(c1)c(-c1cccc(Cl)c1)cc(=O)n2C [Tipifarnib, tipifarnib, reference compound]	≤ 10 nM	< 30 min	< 5 min	≤ 50 nM	> 1000 nM	–	–	–
